Test results as given in BindingDB's records for patent US20250115591 (Inflazome, 2025).

Each molecule was assayed against NACHT, LRR and PYD domains-containing protein 3 (Homo sapiens, UniProt Q96P20) (assay: THP-1 Cells Pyroptosis Assay).
Procedure: 1. Seed THP-1 cells (25,000 cells/well) containing 1.0 μg/ml LPS in 40μ of RPMI medium (without FBS) in 96-well, black walled, clear bottom cell culture plates coated with poly-D-lysine (VWR #734-0317)2. Add 5 μl compound (8 points half-log dilution, with […]) or vehicle (DMSO 0.1% FAC) to the appropriate wells3. Incubate for 3 hrs at 37° C. and 5% CO24. Add 5 μl nigericin (Sigma #N7143) (FAC 5 μM) to all wells5. Incubate for 1 hr at 37° C. and 5% CO26. At the end of the incubation period, spin plates at 300×g for 3 mins and remove supernatant7. Then add 50 μl of resazurin (Sigma #R7017) (FAC 100 μM resazurin in RPMI medium without FBS) and incubate plates for a further 1-2 hrs at 37° C. and 5% CO28. Plates were read in an Envision reader at Ex 560 nm and Em 590 nm9. IC50 data is fitted to a non-linear regression equation (log inhibitor vs response-variable slope 4-parameters)

Sequence of NACHT, LRR and PYD domains-containing protein 3 (Q96P20 whole entry, the tested form may be a part): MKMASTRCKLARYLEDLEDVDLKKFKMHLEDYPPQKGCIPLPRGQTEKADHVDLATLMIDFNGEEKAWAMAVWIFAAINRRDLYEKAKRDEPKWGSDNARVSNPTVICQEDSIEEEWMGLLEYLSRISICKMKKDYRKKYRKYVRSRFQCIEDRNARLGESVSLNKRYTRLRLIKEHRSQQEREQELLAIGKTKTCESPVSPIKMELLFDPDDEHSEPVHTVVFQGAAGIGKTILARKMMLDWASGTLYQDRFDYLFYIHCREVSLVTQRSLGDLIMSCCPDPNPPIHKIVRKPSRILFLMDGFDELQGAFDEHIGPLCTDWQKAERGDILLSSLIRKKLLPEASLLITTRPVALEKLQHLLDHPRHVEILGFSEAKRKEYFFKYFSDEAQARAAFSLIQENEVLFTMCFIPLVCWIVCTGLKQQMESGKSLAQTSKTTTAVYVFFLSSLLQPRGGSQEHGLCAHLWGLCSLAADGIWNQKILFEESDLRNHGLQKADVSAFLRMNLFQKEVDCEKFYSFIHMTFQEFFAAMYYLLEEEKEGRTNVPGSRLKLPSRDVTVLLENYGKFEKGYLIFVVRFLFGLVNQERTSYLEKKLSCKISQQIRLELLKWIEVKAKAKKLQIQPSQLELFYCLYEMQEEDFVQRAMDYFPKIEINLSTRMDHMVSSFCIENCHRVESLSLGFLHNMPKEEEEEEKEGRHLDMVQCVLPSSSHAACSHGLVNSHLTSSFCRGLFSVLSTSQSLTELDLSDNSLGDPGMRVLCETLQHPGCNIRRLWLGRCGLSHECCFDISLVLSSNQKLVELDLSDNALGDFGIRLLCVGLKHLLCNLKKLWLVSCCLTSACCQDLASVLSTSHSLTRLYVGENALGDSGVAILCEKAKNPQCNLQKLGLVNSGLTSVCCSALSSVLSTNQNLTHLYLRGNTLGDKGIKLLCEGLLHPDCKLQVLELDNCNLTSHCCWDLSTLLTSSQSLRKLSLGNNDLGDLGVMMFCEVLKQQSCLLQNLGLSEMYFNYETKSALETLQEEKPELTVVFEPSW

Compound	IC50 [µM]
O=C(Nc1c2c(cc3c1CCC3)CCC2)NS(=O)(=O)C1CN(C2CCC2)C1 [US20250115591, Example 18]	< 1
COC(=O)CN1CC(S(=O)(=O)NC(=O)Nc2c3c(cc4c2CCC4)CCC3)C1 [US20250115591, Example 78]	< 10
CCCCN1CC(S(=O)(=O)NC(=O)Nc2c3c(cc4c2CCC4)CCC3)C1 [US20250115591, Example 83]	< 10
CCN1[C@@H]2CC[C@H]1C[C@@H](S(=O)(=O)NC(=O)Nc1c3c(cc4c1CCC4)CCC3)C2 [US20250115591, Example 52]	< 10
N=C(N)N1CC(S(=O)(=O)NC(=O)Nc2c3c(cc4c2CCC4)CCC3)C1 [US20250115591, Example 113]	< 1
CC(C)NC(=O)N1CCCC(S(=O)(=O)NC(=O)Nc2c3c(cc4c2CCC4)CCC3)C1 (stereo unspecified) [US20250115591, Example 33]	< 10
CCC(C)N1CC(S(=O)(=O)NC(=O)Nc2c(C(C)C)cc(F)cc2C(C)C)C1 (stereo unspecified) [US20250115591, Example 143]	< 10
O=C(Nc1c2c(cc3c1CCC3)CCC2)NS(=O)(=O)C1CN(C2CNC2)C1 [US20250115591, Example 114]	< 10
CCN1[C@@H]2CC[C@H]1C[C@H](S(=O)(=O)NC(=O)Nc1c3c(cc4c1CCC4)CCC3)C2 [US20250115591, Example 70]	< 1
O=C(Nc1c2c(cc3c1CCC3)CCC2)NS(=O)(=O)C1CCNC1 (stereo unspecified) [US20250115591, Example 55]	< 10
CCC(C)N1CC(S(=O)(=O)NC(=O)Nc2c(C(C)C)cc(Cl)cc2C(C)C)C1 (stereo unspecified) [US20250115591, Example 187]	< 10
CC(C)(C)OC(=O)N1CC(N2CC(S(=O)(=O)NC(=O)Nc3c4c(cc5c3CCC5)CCC4)C2)C1 [US20250115591, Example 106]	< 10
CN(C(=O)OC(C)(C)C)/C(=N\C(=O)OC(C)(C)C)N1CC(S(=O)(=O)NC(=O)Nc2c3c(cc4c2CCC4)CCC3)C1 [US20250115591, Example 127]	< 10
CNC(=N)N1CC(S(=O)(=O)NC(=O)Nc2c3c(cc4c2CCC4)CCC3)C1 [US20250115591, Example 129]	< 10
CC(=O)N1CCC(S(=O)(=O)NC(=O)Nc2c3c(cc4c2CCC4)CCC3)C1 (stereo unspecified) [US20250115591, Example 38]	< 10
CN(C)C(=O)CN1CC(S(=O)(=O)NC(=O)Nc2c3c(cc4c2CCC4)CCC3)C1 [US20250115591, Example 21]	< 10
CC(=O)N1CCCC(S(=O)(=O)NC(=O)Nc2c3c(cc4c2CCC4)CCC3)C1 (stereo unspecified) [US20250115591, Example 56]	< 10
CNC(=O)N1CCC(S(=O)(=O)NC(=O)Nc2c3c(cc4c2CCC4)CCC3)CC1 [US20250115591, Example 28]	< 10
CC(=O)N1CC(S(=O)(=O)NC(=O)Nc2c3c(cc4c2CCC4)CCC3)C1 [US20250115591, Example 74]	< 10
CC(C)(C)OC(=O)/N=C(/NC(=O)OC(C)(C)C)N1CC(S(=O)(=O)NC(=O)Nc2c3c(cc4c2CCC4)CCC3)C1 [US20250115591, Example 112]	< 10
CCN1CCCC(S(=O)(=O)NC(=O)Nc2c3c(cc4c2CCC4)CCC3)CC1 (stereo unspecified) [US20250115591, Example 194]	< 1

Compound	IC50 [µM]
CCN1CCC(S(=O)(=O)NC(=O)Nc2c3c(cc4c2CCC4)CCC3)C1 (stereo unspecified) [US20250115591, Example 37]	< 1
CCCCCCn1cc(S(=O)(=O)NC(=O)Nc2c3c(cc4c2CCC4)CCC3)c(=O)[nH]c1=O [US20250115591, Example 17]	< 10
CC(=O)N1CCC(S(=O)(=O)NC(=O)Nc2c3c(cc4c2CCC4)CCC3)CC1 [US20250115591, Example 3]	< 10
O=C(Nc1c2c(cc3c1CCC3)CCC2)NS(=O)(=O)C1CN(C2CCCCC2)C1 [US20250115591, Example 98]	< 1
C[C@@H](O)Cn1cc(S(=O)(=O)NC(=O)Nc2c3c(cc4c2CCC4)CCC3)ccc1=O [US20250115591, Example 183]	< 1
CC(C)(C)N1CC(S(=O)(=O)NC(=O)Nc2c3c(cc4c2CCC4)CCC3)C1 [US20250115591, Example 93]	< 1
CCNC(=O)N1CCC(S(=O)(=O)NC(=O)Nc2c3c(cc4c2CCC4)CCC3)C1 (stereo unspecified) [US20250115591, Example 30]	< 10
COc1cc(-c2ccc3c(c2NC(=O)NS(=O)(=O)c2cn(C(C)C)c(=O)cn2)CCC3)ccn1 [US20250115591, Example 156]	< 1
Cn1cc(S(=O)(=O)NC(=O)Nc2c3c(cc4c2CCC4)CCC3)c(=O)n(C)c1=O [US20250115591, Example 16]	< 10
CC(C)N1CC(S(=O)(=O)NC(=O)Nc2c3c(cc4c2CCC4)CCC3)CC1C(=O)N(C)C (stereo unspecified) [US20250115591, Example 148]	< 10
N#CCN1CC(S(=O)(=O)NC(=O)Nc2c3c(cc4c2CCC4)CCC3)C1 [US20250115591, Example 87]	< 10
CC(C)N1[C@@H]2CC[C@H]1C[C@H](S(=O)(=O)NC(=O)Nc1c3c(cc4c1CCC4)CCC3)C2 [US20250115591, Example 69]	< 1
O=C(Nc1c2c(cc3c1CCC3)CCC2)NS(=O)(=O)C1CN(C2CC2)C1 [US20250115591, Example 85]	< 1
CCC(C)N1CCC(S(=O)(=O)NC(=O)Nc2c3c(cc4c2CCC4)CCC3)C1 (stereo unspecified) [US20250115591, Example 82]	< 10
C=CCN1CC(S(=O)(=O)NC(=O)Nc2c3c(cc4c2CCC4)CCC3)C1 [US20250115591, Example 132]	< 1
O=C(Nc1c2c(cc3c1CCC3)CCC2)NS(=O)(=O)C1CN(C2CCCC2)C1 [US20250115591, Example 99]	< 1
CCNC(=O)N1CCC(S(=O)(=O)NC(=O)Nc2c3c(cc4c2CCC4)CCC3)CC1 [US20250115591, Example 26]	< 10
CC(C)N1[C@@H]2CC[C@H]1C[C@@H](S(=O)(=O)NC(=O)Nc1c3c(cc4c1CCC4)CCC3)C2 [US20250115591, Example 45]	< 1
CN1CC(N2[C@@H]3CC[C@H]2C[C@@H](S(=O)(=O)NC(=O)Nc2c4c(cc5c2CCC5)CCC4)C3)C1 [US20250115591, Example 146]	< 10
O=C(Nc1c2c(cc3c1CCC3)CCC2)NS(=O)(=O)C1CNC1 [US20250115591, Example 42]	< 10
